Laboratory results published in patent US20170066801A1, “ALPHA3BETA HYDROGEN BOND SURROGATE MACROCYCLES AS MODULATORS OF RAS” (NEW YORK UNIVERSITY, priority 2014, published 2017).
Entries after “also recorded” stand apart in the source; their conditions may differ. Read-outs that look alike come from different tables or passages of the source. Non-standard residues stand in square brackets, D forms with d. Residues, ends and D or L forms follow the SMILES beside them. β3hI = CC[C@H](C)[C@H](N)CC(=O)O; β3hE = N[C@@H](CCC(=O)O)CC(=O)O; β3hA = C[C@H](N)CC(=O)O

Experiments:
[1] = system: panel of six human cancer cell lines; assay: Growth and viability of a panel of six human cancer cell lines; type: cell-based; conditions: for effect on cell growth relative to vehicle control: single administration of 5 μM, six days
Experimental: (§1) Various indicated cell lines were plated at low density (˜500-1000 cells per well) in a 96-well format. 12 hours post-plating, media was supplemented with either PBS vehicle, or indicated dosage, and cells were allowed to grow for ˜5.5 days. Cells were subsequently fixed for 1 hour with a 3.7% formaldehyde solution in PBS, and stained with Syto-60 nucleic acid stain (MANUFACTURER) in solution (1:2000 Syto-60, 0.5% Triton X-100, 100 ug/mL RNAse-A, in PBS). Syto-60 stained cells were subjected to quantitative imaging in 96-well plates (Odyssey® Imager, LI-COR Biosciences; excitation: 652; emission: 678) with a 3.0 mm z-axis offset to the scan-head to get the cellular nuclei in the optimal focal plane for quantification. Absolute fluorescence intensity was normalized to the vehicle control for each respective cell line at each dose. Normalized values were visualized on a semilog plot, and data was subjected to non-linear sigmoidal dose-response to determine half-maximal effective concentration (EC50) using GraphPad Prism version 6.00 for OSX, (GraphPad Software, La Jolla Calif. USA, www.graphpad.com).
(§2) To investigate the functional consequence of inhibiting Ras activation in the context of oncogenic mutations, we examined the effect of α3β-HBSSOS on the growth and viability of cancer cells of different origins. We selected a panel of six human cancer cell lines derived from the pancreas, colon, and bladder, which harbor a variety of oncogenic proteins including mutant KRas (Table 3).
(§3) α3β-HBSSOS reduces cell viability in a dose dependent manner, with the effect spanning over four orders of magnitude. We divided the cell lines into two groups with respect to EC50 values (Table 3). […] We hypothesized that differential cellular uptake may account for the different potency of the peptides between the oncogenic and wild type RTK-Ras cell lines.

[2] = biological target: Sos-mediated Ras nucleotide exchange (Homo sapiens, UniProt P01112); assay: In vitro nucleotide exchange (mant-GDP, SOS-Cat); type: biochemical
Experimental: Exchange assays were performed by incubating 1 μM of recombinant wild type Ras protein with 1 μM mant-GDP in exchange buffer (20 mM Tris-HCl pH 7.6, 50 mM NaCl, 4 mM EDTA) for 5 minutes on ice. The mixture was then supplemented with 10 mM MgCl2 and incubated for an additional 6 hours at 4° C. Exchange reaction was initiated by either the addition of 100 μM-unlabeled GDP, (negative control) or the addition of 100 μM-unlabeled GDP in the presence of 1 μM SOS-Cat. The levels of fluorescence anisotropy were measured on a Perkin Elmer fluorescence spectrometer (model LS50B) with an excitation wavelength of 370 nm and emission detection at 430 nm. To test the inhibitory properties of the HBSSOS helices, indicated peptides were added to the mant-loaded Ras at a concentration of 1 uM and allowed to stand for 10 minutes at 4° C. before the addition of SosCat. Dissociation rates (Koff values) were determined by fitting raw data to a first-order exponential decay function using GraphPad Prism version 6.00 for OSX (GraphPad Software, La Jolla Calif. USA, www.graphpad.com). Data was normalized to t=0, converted to a percentage, and plotted as a curve for ease of visualization.
We evaluated inhibition of nucleotide exchange under stringent conditions consisting of 1 μM each of Ras, SOS, and the inhibitor.

HRas^(1-166) = biological target: T1, HRas^(1-166) (Homo sapiens, UniProt P01112); assay: In vitro pulldown binding assay with 6×His-tagged HRas 1-166 and fluorescein-tagged SOS peptides
T1 construct: 6×His-tagged HRas WT 1-166; made in house
Experimental: Recombinantly purified 6×His-tagged HRas WT 1-166 was incubated with Ni-NTA sepharose beads, generating recombinant Ras on solid support. FITC labeled HBS peptides were incubated in the presence of recombinant HRas-6×His/Ni-NTA Sepharose complex at 4° C. for 1 hour. Beads complexes were pelleted and washed 5× with protein buffer (20 mM Tris-HCl pH 7.6, 50 mM NaCl, 4 mM EDTA, 10 mM MgCl2), resuspended in reducing buffer (126 mM Tris-HCL pH 6.8, 20% glycerol, 4% SDS, 0.02% bromophenol blue, 2.5% β-mercaptoethanol), boiled for 10 minutes at 95° C., and subjected to SDS-PAGE with an acrylamide percentage of 20% to allow for sufficient resolution of the HBS helices. SDS-PAGE gels were imaged using an ImageQuant™ LAS 4000 biomolecular imager (GE Healthcare, Piscataway, N.J., USA). Quantification of fluorescence by FITC-HBS helices in gel was determined by manufacturer provided ImageQuant™ TL software. Raw values were normalized to total input and plotted on a semilog graph with GraphPad Prism version 6.00 for OSX (GraphPad Software, La Jolla Calif. USA, www.graphpad.com).
The binding affinity of the designed compounds for Ras was determined using in vitro pulldown assays with recombinantly purified 6×His-tagged HRas^(1-166) and fluorescein-tagged SOS peptides (FIGS. 8 and 9, and Table 2). […] Although, the exact binding mode of the peptides and the conformational state of Ras is not known, the enhanced affinity of the α3β-HBSSOS compound likely reflects a combination of both the higher conformational stability of the HBS α3β construct and the exact Ras conformation it can access. […] Because, the SOS analogs can bind nucleotide-free and bound Ras, we hypothesize that the compounds are accessing an intermediate switch conformation.

mutant Ras cells = assay: Phosphorylated H2AX and cleaved caspace-3 immunofluorescence; type: cell-based; conditions: only mutant Ras cells
Text: We next sought to gain mechanistic insight into the attenuated growth and viability of cancer cells that is observed upon inhibition of Sos-mediated Ras activation with α3β-HBSSOS. Because of the link between Ras signaling and cell cycle progression, we reasoned that DNA content analysis would elucidate Ras-mediated effects on cell growth. […] This cellular response to pharmacological inhibition of Ras activation by α3β-HBSSOS phenocopies the effects of the post-transcriptional silencing of wild type Ras and Sos in oncogenic Ras-driven cancer. These corroborant genetic and pharmacological cell viability defects support the therapeutic strategy of targeting wild type Ras activation.

oncogenic KRas = biological target: T2, oncogenic KRas (Homo sapiens, UniProt P01116, G12C); assay: RBD-pulldown of GTP-loaded Ras in MIA PaCa-2 cells; type: cell-based; conditions: 48 hours
T2 construct: levels of GTP-loaded endogenous HRas, KRas, and NRas proteins; endogenous in cells; host or cells: MIA PaCa-2
Experimental: (§4) To determine the effect of α3β-HBSSOS on Sos-mediated Ras activation in cells we treated MIA PaCa-2 cells, which harbor oncogenic KRas, with α3β-HBSSOS, control peptides, or vehicle control for 48 hours. Utilizing the RBD-pulldown assay we determined the levels of GTP-loaded endogenous HRas, KRas, and NRas proteins. As expected, MIA PaCa-2 cells display GTP-loading of all isoforms at steady state when treated with the vehicle control (FIGS. 11A-B).

wild type NRas = biological target: T3, wild type NRas (Homo sapiens, UniProt P01111); assay: RBD-pulldown of GTP-loaded Ras in MIA PaCa-2 cells; type: cell-based; conditions: 48 hours
T3 construct: levels of GTP-loaded endogenous HRas, KRas, and NRas proteins; endogenous in cells; host or cells: MIA PaCa-2
Experimental: as §4

wild type HRas = biological target: T4, wild type HRas (Homo sapiens, UniProt P01112); assay: RBD-pulldown of GTP-loaded Ras in MIA PaCa-2 cells; type: cell-based; conditions: 48 hours
T4 construct: levels of GTP-loaded endogenous HRas, KRas, and NRas proteins; endogenous in cells; host or cells: MIA PaCa-2
Experimental: as §4

[3] = system: mutant Ras and wild type Ras cancer cell lines; assay: Analysis of DNA content by FACS (cell cycle); type: cell-based
Experimental: DNA content was determined by flow cytometric analysis using TO-PRO®-3 Iodide (Life Technologies Corp., Grand Island, N.Y.) to stain nucleic acids. Cell lines were plated at ˜40-50% confluency in multi-well format and 12-hours post plating were treated with either HBS helices or vehicle control at the indicated dose. After the indicated incubation period the culture media was collected, and the cells were trypsinized, pooled with the media, pelleted in a clinical centrifuge, resuspended in a small volume of PBS, and added dropwise to 100% ice-cold ethanol while vortexing at low speed, resulting in a final concentration of ˜70% ethanol. Cells were fixed in this solution on ice for 24 hours. Subsequently cells were pelleted at 4° C., washed once with a solution of 1% BSA in PBS, and resuspended in a solution of 1% BSA, 0.5% Triton X-100, 1:5000 TO-PRO®-3 Iodide (Life Technologies Corp., Grand Island, N.Y.). Results and Discussion of Examples 1-9
We next sought to gain mechanistic insight into the attenuated growth and viability of cancer cells that is observed upon inhibition of Sos-mediated Ras activation with α3β-HBSSOS. Because of the link between Ras signaling and cell cycle progression, we reasoned that DNA content analysis would elucidate Ras-mediated effects on cell growth. […]

Mia PaCa2 = type: cell-based, human; conditions: read-out: EC50 for cell viability
Experimental: as §1, §2, §3

J82 = type: cell-based, human; conditions: read-out: EC50 for cell viability
Experimental: as §1, §2, §3

SW780 = type: cell-based, human; conditions: SW780, Ras WT; read-out: EC50 for cell viability
Experimental: as §1, §2, §3

CaCo2 = type: cell-based, human; conditions: CaCo2, Ras WT; read-out: EC50 for cell viability
Experimental: as §1, §2, §3

BxPc3 = type: cell-based, human; conditions: BxPc3, Ras WT; read-out: EC50 for cell viability
Experimental: as §1, §2, §3

HCT116 = type: cell-based, human; conditions: read-out: EC50 for cell viability
Experimental: as §1, §2, §3

T3 sequence (P01111 whole entry): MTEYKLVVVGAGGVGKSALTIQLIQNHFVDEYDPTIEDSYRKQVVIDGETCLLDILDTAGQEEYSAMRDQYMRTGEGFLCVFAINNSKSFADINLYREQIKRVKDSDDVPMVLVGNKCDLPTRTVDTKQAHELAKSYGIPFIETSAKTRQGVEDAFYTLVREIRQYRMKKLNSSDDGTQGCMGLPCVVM
T2 sequence (P01116 whole entry G12C): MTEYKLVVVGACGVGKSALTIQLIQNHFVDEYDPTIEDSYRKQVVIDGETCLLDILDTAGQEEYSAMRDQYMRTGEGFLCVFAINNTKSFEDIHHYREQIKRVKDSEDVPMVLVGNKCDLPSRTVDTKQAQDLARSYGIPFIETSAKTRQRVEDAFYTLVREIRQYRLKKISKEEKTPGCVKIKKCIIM

CC[C@H](C)[C@@H](CC(=O)N[C@@H](Cc1ccc(O)cc1)C(=O)N[C@@H](CCCNC(=N)N)C(=O)N[C@@H](CC(C)C)C(=O)N[C@@H](CCC(=O)O)CC(=O)N[C@@H](CC(C)C)C(=O)N[C@@H](CC(C)C)C(=O)N[C@@H](CCCCN)C(=O)N[C@@H](C)CC(=O)N[C@@H](CCC(=O)O)C(=O)N[C@@H](CCC(=O)O)C(=O)N[C@@H](C)C(=O)N[C@@H](CC(N)=O)C(N)=O)NC(=O)CN1CC=CCCCC(=O)N[C@@H](Cc2ccccc2)C(=O)N[C@@H](CCC(=O)O)C1=O [α3β-HBSSOS, ZFEG*iYRLeLLKaEEAN-NH2]
effect on viability of the wild-type Ras group ([1]; CaCo2, SW780, and BxPc3): limited effects on viability
effect on cell growth relative to vehicle control [1]: inhibited the growth of all cell lines to varying degrees
inhibition of Sos-mediated Ras nucleotide exchange ([2]; 1 μM each of Ras, SOS, and the inhibitor): potent inhibitory effect
concentration giving inhibitory effect comparable to previously reported α-HBSSOS ([2]; relative to α-HBSSOS concentration): one-twentieth
fold greater affinity than the all-α analog α-HBSSOS (HRas^(1-166)): 50 fold
Kd (HRas^(1-166); fluorescein-tagged peptides, 4° C., 1 hour): 220 ± 56 nM
DNA strand breaks and apoptosis (mutant Ras cells): increased levels
GTP-loading of oncogenic KRas (oncogenic KRas): diminished; also recorded: significantly reduced
GTP-loading of wild type NRas (wild type NRas): completely abrogated
GTP-loading of wild type HRas (wild type HRas): completely abrogated
cells with 4N DNA content ([3]; mutant Ras cells (MIA PaCa-2, HCT-116, Umuc3, T24), 48 hours): accumulation
accumulation in the G2/M phase of the cell cycle ([3]; wild type Ras cell lines (SW780, BxPc3, J82)): do not accumulate
EC50 (Mia PaCa2; MIA PaCa-2): 144 ± 57 nM
EC50 (Mia PaCa2; Mia PaCa2, Kras G12D): 144 nM
EC50 (J82; J82, Ras WT, FGFR3 CA): 65.2 nM
EC50 (J82; J82): 65.2 ± 43 nM
EC50 (SW780): 1450 nM
EC50 (CaCo2): 2670 nM
EC50 (BxPc3): 1180 nM
EC50 (HCT116; HCT116, Kras G13C): 243 nM
EC50 (HCT116; HCT-116): 243 ± 44 nM

CC[C@H](C)[C@@H](CC(=O)N[C@@H](Cc1ccc(O)cc1)C(=O)N[C@@H](CCCNC(=N)N)C(=O)N[C@@H](CC(C)C)C(=O)N[C@@H](CCC(=O)O)CC(=O)N[C@@H](CC(C)C)C(=O)N[C@@H](CC(C)C)C(=O)N[C@@H](CCCCN)C(=O)N[C@@H](C)CC(=O)N[C@@H](CCC(=O)O)C(=O)N[C@@H](CCC(=O)O)C(=O)N[C@@H](C)C(=O)N[C@@H](CC(N)=O)C(N)=O)NC(=O)CNC(=O)[C@H](CCC(=O)O)NC(=O)[C@H](Cc1ccccc1)NC(C)=O [α3β-UNCSOS, Ac-FEGiYRLeLLKaEEAN-NH2] (Ac-FEG[β3hI]YRL[β3hE]LLK[β3hA]EEAN-NH2)
effect on cell growth relative to vehicle control [1]: no effect on cell growth
fold weaker affinity than constrained counterpart α3β-HBSSOS (HRas^(1-166)): ~136 fold
GTP-loading of wild type NRas (wild type NRas): not
GTP-loading of wild type HRas (wild type HRas): not
